In the CheMixHub ionic liquid set:

Test: xn = mol fraction of the nth substance listed

CCCC[n+]1ccn(C)c1.O=[N+]([O-])[O-] + CCCCCCCO
viscosity [mPa·s], 100 kPa
Conditions | 293.15 K | 303.15 K | 313.15 K | 323.15 K
x1 = 0.0824 | 7.76 | 5.5 | 3.98 | 2.87
x1 = 0.1625 | 8.67 | 6.03 | 4.34 | 3.03
x1 = 0.2317 | 9.68 | 6.61 | 4.7 | 3.23
x1 = 0.3446 | 11.46 | 7.53 | 5.37 | 3.67
x1 = 0.4317 | 13.2 | 8.53 | 5.96 | 4.12
x1 = 0.5762 | 18.7 | 11.56 | 7.74 | 5.01
x1 = 0.6416 | 24.3 | 14.4 | 9.06 | 5.69
x1 = 0.7334 | 41.3 | 22.6 | 14 | 8.49
x1 = 0.8418 | 82.4 | 43 | 26.4 | 15.8
x1 = 0.9327 | 146 | 77.8 | 47.8 | 28.1
x1 = 1 | 224 | 125 | 75.1 | 45.2

CCOS(=O)(=O)[O-].CC[n+]1ccn(C)c1 + CCO
298.15 K, 101 kPa
Conditions | viscosity [mPa·s]
x2 = 0.2187 | 47.7
x2 = 0.7508 | 5.08
x2 = 0.7866 | 4.31

CC(=O)[O-].CCCC[P+](CCCC)(CCCC)CCCC + CC(=O)[O-].CCCC[n+]1ccn(C)c1
101 kPa
Conditions | viscosity [mPa·s]
313.15 K, x2 = 0.751 | 246
323.15 K, x2 = 0.5018 | 169.2

CCCC[n+]1ccn(C)c1.O=[N+]([O-])[O-] + CCCC(C)O
100 kPa
Conditions | viscosity [mPa·s]
293.15 K, x1 = 0.8501 | 83
303.15 K, x1 = 0.3499 | 6.6
318.15 K, x1 = 0.4399 | 5.9
323.15 K, x1 = 0.5604 | 7.1
323.15 K, x1 = 0.6505 | 9.7

CCCC[n+]1ccn(C)c1.O=[N+]([O-])[O-] + CCCCCCO
viscosity [mPa·s], 100 kPa
Conditions | 293.15 K | 303.15 K | 313.15 K | 323.15 K
x1 = 0.0811 | 6.41 | 4.47 | 3.24 | 2.45
x1 = 0.1741 | 7.98 | 5.21 | 3.72 | 2.75
x1 = 0.2418 | 9.59 | 6.02 | 4.21 | 3.02
x1 = 0.3587 | 13.3 | 8.24 | 5.33 | 3.63
x1 = 0.4426 | 17.5 | 10.69 | 6.48 | 4.22
x1 = 0.5532 | 26.6 | 15.4 | 8.94 | 5.49
x1 = 0.6538 | 40.2 | 23 | 12.8 | 7.56
x1 = 0.7414 | 60.7 | 33.8 | 18.9 | 10.83
x1 = 0.8519 | 103.2 | 58.4 | 33.4 | 18.5
x1 = 0.9367 | 162 | 90.8 | 53.2 | 30.6
x1 = 1 | 224 | 125 | 75.1 | 45.2

CCCC[n+]1ccn(C)c1.O=[N+]([O-])[O-] + O + NCCO
100 kPa
Conditions | viscosity [mPa·s]
303 K, x1 = 0.2218, x2 = 0.4128 | 15.07
303 K, x1 = 0.2959, x2 = 0.2542 | 17.98
308 K, x1 = 0.2218, x2 = 0.4128 | 12.54
308 K, x1 = 0.2959, x2 = 0.2542 | 14.93
313 K, x1 = 0.01284, x2 = 0.8603 | 2.342
313 K, x1 = 0.02953, x2 = 0.8245 | 2.9
313 K, x1 = 0.05213, x2 = 0.7761 | 3.701
313 K, x1 = 0.08442, x2 = 0.707 | 4.94
313 K, x1 = 0.1343, x2 = 0.6001 | 6.9
313 K, x1 = 0.2218, x2 = 0.4128 | 10.58
313 K, x1 = 0.2959, x2 = 0.2542 | 12.55
313 K, x1 = 0.4146, x2 = 0 | 17.77
318 K, x1 = 0.2218, x2 = 0.4128 | 9.05
318 K, x1 = 0.2959, x2 = 0.2542 | 10.69
323 K, x1 = 0.2218, x2 = 0.4128 | 7.81
323 K, x1 = 0.2959, x2 = 0.2542 | 9.2

CC[n+]1ccn(C)c1.F[P-](F)(F)(F)(F)F + CC(C)C[C@H](N)C(=O)O + O
100 kPa
Conditions | electrical conductivity, 298.15 K [S/m] | electrical conductivity, 303.15 K [S/m] | electrical conductivity, 308.15 K [S/m] | viscosity, 298.15 K [mPa·s] | viscosity, 303.15 K [mPa·s] | viscosity, 308.15 K [mPa·s]
x2 = 0.0001802, x1 = 1.802e-05 | 0.011 | 0.0123 | 0.0135 | 0.925 | 0.857 | 0.783
x2 = 0.0001803, x1 = 5.405e-05 | 0.0293 | 0.0326 | 0.0354 | 0.94 | 0.862 | 0.788
x2 = 0.0001804, x1 = 9.008e-05 | 0.0464 | 0.0517 | 0.0561 | 0.955 | 0.866 | 0.793
x2 = 0.0004522, x1 = 1.801e-05 | 0.0109 | 0.0122 | 0.0133 | 0.933 | 0.864 | 0.791
x2 = 0.0004524, x1 = 5.403e-05 | 0.0295 | 0.0328 | 0.0353 | 0.946 | 0.868 | 0.795
x2 = 0.0004526, x1 = 9.005e-05 | 0.0461 | 0.0514 | 0.0557 | 0.962 | 0.876 | 0.802
x2 = 0.0007258, x1 = 1.801e-05 | 0.0111 | 0.0122 | 0.0135 | 0.94 | 0.872 | 0.799
x2 = 0.0007262, x1 = 5.402e-05 | 0.0293 | 0.0326 | 0.0351 | 0.957 | 0.879 | 0.805
x2 = 0.0007265, x1 = 9.003e-05 | 0.0458 | 0.051 | 0.0558 | 0.973 | 0.885 | 0.812
x2 = 0.0009976, x1 = 1.8e-05 | 0.0106 | 0.0118 | 0.013 | 0.947 | 0.88 | 0.806
x2 = 0.000998, x1 = 5.4e-05 | 0.0288 | 0.032 | 0.0348 | 0.964 | 0.885 | 0.811
x2 = 0.0009985, x1 = 9e-05 | 0.0451 | 0.0505 | 0.055 | 0.981 | 0.895 | 0.82
x2 = 0.001273, x1 = 1.8e-05 | 0.011 | 0.0122 | 0.0134 | 0.955 | 0.888 | 0.814
x2 = 0.001273, x1 = 5.399e-05 | 0.0285 | 0.0318 | 0.0345 | 0.973 | 0.895 | 0.821
x2 = 0.001274, x1 = 8.998e-05 | 0.0449 | 0.0502 | 0.0545 | 0.991 | 0.904 | 0.827
x2 = 0.001546, x1 = 1.799e-05 | 0.0112 | 0.0123 | 0.0136 | 0.961 | 0.895 | 0.822
x2 = 0.001547, x1 = 5.397e-05 | 0.0283 | 0.0315 | 0.0344 | 0.982 | 0.905 | 0.831
x2 = 0.001547, x1 = 8.995e-05 | 0.0445 | 0.0493 | 0.0541 | 1 | 0.912 | 0.841
